Test [1] deals with mouse lung cancer cell line LL/2 (LLc1). The test can be described thus: Anti-tumor effect in subcutaneous LL/2 (LLc1) transplantation model. The class given is in vivo. The note with it: C57BL/6J mice, lenvatinib oral once daily, anti-PD-1 antibody 500 μg/head i.p. every 3 days. As for the experimental part:
A DMEM culture medium (high-glucose type) containing 10% fetal bovine serum (FBS) and penicillin/streptomycin was used to culture a mouse lung cancer cell line LL/2 (LLc1) (ATCC number: CRL-1642). Next, phosphate buffered saline (PBS) was used to prepare a cell suspension having a concentration of 2.0×10^7 cells/mL. The cell suspension was subcutaneously transplanted at a dose of 0.1 mL on the right lateral side of the body of each of 7-week-old mice (C57BL/6J, female, Charles River Laboratories Japan Inc.). Eight (8) days after the transplantation, an electronic digital caliper (Digimatic™ Caliper; Mitutoyo Corporation) was used to measure the short and long diameters of a tumor of interest. The following equation was used to calculate the tumor volume TV. Tumor Volume TV (mm^3)=Long Diameter (mm)×Short Diameter (mm)×Short Diameter (mm)/2.
(§1) Based on the tumor volumes on the first day of administration, grouping was carried out such that the average values of the tumor volumes were almost the same. A 1 mg/ml solution of lenvatinib was prepared using water for injection (Otsuka Pharmaceutical Co., Ltd.) and was orally administered at a dose of 0.2 mL/20 g mouse body weight once daily for 14 days. 0.2 mL of an administration sample containing 2.5 mg/mL of an anti-mouse-PD-1 antibody (Clone: RMP1-14, BioXCell, Catalog#: BE0146), which had been diluted with PBS, was intraperitoneally administered (at a dosage of 500 μg/head) once every 3 days a total of 5 times (day 1, day 4, day 7, day 10, and day 13, with the day of the grouping set to day 1). To the control group, Otsuka water for injection was orally administered at a dose of 0.2 mL/20 g mouse body weight once daily for 14 days. Each group including 5 mice was used to conduct the experiment. The day (day 15) after the final administration, the respective tumor volumes (TV) were determined for the control group, the lenvatinib administration group, the anti-mouse-PD-1 antibody administration group, and the combination administration group. The values obtained by logarithmically transforming the tumor volumes were used to carry out statistical analysis.

The subject of test [2] is mouse colon carcinoma cell line CT26.WT. The test can be described thus: Anti-tumor effect in subcutaneous CT26.WT transplantation model, lenvatinib mesilate and anti-PD-L1 antibody. The class given is in vivo. Conditions: BALB/c mice, lenvatinib mesilate oral once daily, anti-PD-L1 antibody 500 μg/head i.p. every 3 days. As for the experimental part:
A RPMI1640 culture medium containing 10% FBS and penicillin/streptomycin was used to culture a mouse colon carcinoma cell line CT26.WT (ATCC number: CRL-2638). Hank's Balanced Salt Solution (HBSS) was used to prepare a cell suspension having a concentration of 3.0×10^7 cells/mL. The cell suspension was subcutaneously transplanted at a dose of 0.1 mL on the right lateral side of the body of each of 7-week-old mice (BALB/cAnNCrlCrlj, female, Charles River Laboratories Japan Inc.). 8 days after the transplantation, an electronic digital caliper (Digimatic™ Caliper; Mitutoyo Corporation) was used to measure the short and long diameters of a tumor of interest. The following equation was used to calculate the tumor volume TV. Tumor Volume TV (mm^3)=Long Diameter (mm)×Short Diameter (mm)×Short Diameter (mm)/2.
as §1, with “of lenvatinib mesilate was prepared” for “of lenvatinib was prepared”, “of an anti-mouse-PD-L1 antibody, which had” for “of an anti-mouse-PD-1 antibody (Clone: RMP1-14, BioXCell, Catalog#: BE0146), which had”, “tumor volumes TV were determined” for “tumor volumes (TV) were determined”, “group, the anti-mouse-PD-L1 antibody administration” for “group, the anti-mouse-PD-1 antibody administration”

Test [3] has as its target VEGFR2 (Homo sapiens, UniProt P35968). Conditions: according to kinetic analysis; background statement; cited from earlier work.
Where [4] appears, read: Day 1 (day of grouping, first day of administration).

Molecules are shown by their SMILES.

Sequence of VEGFR2 (P35968 20-1356, species assumed): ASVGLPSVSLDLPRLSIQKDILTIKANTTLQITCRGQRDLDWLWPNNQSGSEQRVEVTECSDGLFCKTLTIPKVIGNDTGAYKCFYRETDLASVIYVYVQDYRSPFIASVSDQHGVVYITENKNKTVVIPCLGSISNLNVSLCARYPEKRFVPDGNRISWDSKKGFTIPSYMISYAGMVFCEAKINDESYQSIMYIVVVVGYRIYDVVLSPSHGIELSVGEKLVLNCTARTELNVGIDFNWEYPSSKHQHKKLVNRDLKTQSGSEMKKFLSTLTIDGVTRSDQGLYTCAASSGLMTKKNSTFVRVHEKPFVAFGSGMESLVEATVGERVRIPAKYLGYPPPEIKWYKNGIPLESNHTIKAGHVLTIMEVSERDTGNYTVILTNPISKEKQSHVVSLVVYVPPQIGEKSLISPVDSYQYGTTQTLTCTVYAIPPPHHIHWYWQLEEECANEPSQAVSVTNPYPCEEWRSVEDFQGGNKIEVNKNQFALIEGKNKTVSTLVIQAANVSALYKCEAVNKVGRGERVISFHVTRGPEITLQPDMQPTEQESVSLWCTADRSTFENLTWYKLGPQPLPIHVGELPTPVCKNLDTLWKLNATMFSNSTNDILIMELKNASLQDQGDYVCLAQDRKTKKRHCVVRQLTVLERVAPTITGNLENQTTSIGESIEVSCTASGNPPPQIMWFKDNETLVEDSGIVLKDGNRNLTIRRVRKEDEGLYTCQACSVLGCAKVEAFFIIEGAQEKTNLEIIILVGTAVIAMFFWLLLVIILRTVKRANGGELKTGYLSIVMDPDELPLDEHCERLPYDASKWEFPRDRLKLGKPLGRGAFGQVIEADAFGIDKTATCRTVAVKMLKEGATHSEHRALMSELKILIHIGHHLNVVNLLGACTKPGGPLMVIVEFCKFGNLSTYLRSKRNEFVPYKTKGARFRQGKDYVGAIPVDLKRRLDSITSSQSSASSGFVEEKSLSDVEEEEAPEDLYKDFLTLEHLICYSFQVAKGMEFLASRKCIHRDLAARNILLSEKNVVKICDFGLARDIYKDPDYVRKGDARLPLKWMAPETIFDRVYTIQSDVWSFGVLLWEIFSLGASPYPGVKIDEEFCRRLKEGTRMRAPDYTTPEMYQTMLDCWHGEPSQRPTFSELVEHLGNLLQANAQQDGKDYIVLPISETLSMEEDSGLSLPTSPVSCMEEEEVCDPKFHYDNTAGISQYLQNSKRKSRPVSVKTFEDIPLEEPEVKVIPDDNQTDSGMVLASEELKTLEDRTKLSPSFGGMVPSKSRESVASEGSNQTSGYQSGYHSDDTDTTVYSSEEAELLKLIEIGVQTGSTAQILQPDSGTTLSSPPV

With `COc1cc2nccc(Oc3ccc(NC(=O)NC4CC4)c(Cl)c3)c2cc1C(N)=O` [Lenvatinib, 4-[3-chloro-4-(cyclopropylaminocarbonyl)aminophenoxy]-7-methoxy-6-quinolinecarboxamide], the “Tumor Volume TV” value in test [1] (setting [4]) is reported as 100 mm^3; in test [1] (Day 4) it was 243 mm^3; in test [1] (Day 8), 394 mm^3; in test [1] (Day 10) it was 553 mm^3; in test [1] (Day 13), 837 mm^3; in test [1] (Day 15 (day after final administration)), 1143 mm^3. Further, the “Tumor Volume TV” value in test [2] (setting [4]) is reported as 154 mm^3; in test [2] (Day 4), 472 mm^3; in test [2] (Day 8), 1172 mm^3; in test [2] (Day 11), 1555 mm^3. Also, in test [3], the “inhibition of kinase activity” value was “rapid and potent inhibition of kinase activity”.

The values are drawn from US11547705B2, “Combination of a PD-1 antagonist and a VEGF-R/FGFR/RET tyrosine kinase inhibitor for treating cancer” (MERCK SHARP & DOHME LLC, priority 2015, dated 2023).
